In ChEMBL document CHEMBL5303573, “Mapping human microbiome drug metabolism by gut bacteria and their genes” (Nature, 2019):

details: bacteroides fragilis, 12 h, 2 µM
Description: The drug is tested on Bacteroides fragilis strain: 3397 (T10) for biotransformation. The drug concentrations were measured before and after a 12-h incubation by liquid-chromatography-coupled mass spectrometry (LC–MS)

Structure (SMILES)	Bacterial Biotransformation
Cc1ccccc1C(OCCN(C)C)c1ccccc1.O=C(O)CC(O)(CC(=O)O)C(=O)O (stereo unspecified) [ORPHENADRINE CITRATE]	Compound NOT metabolized

details: bacteroides thetaiotaomicron, 12 h, 2 µM
Description: The drug is tested on Bacteroides thetaiotaomicron strain: VPI-5482 for biotransformation. The drug concentrations were measured before and after a 12-h incubation by liquid-chromatography-coupled mass spectrometry (LC–MS)

Structure (SMILES)	Bacterial Biotransformation
O=C(O)CCc1nc(-c2ccccc2)c(-c2ccccc2)o1 [OXAPROZIN]	Compound metabolized
Cc1ccccc1C(OCCN(C)C)c1ccccc1.O=C(O)CC(O)(CC(=O)O)C(=O)O (stereo unspecified) [ORPHENADRINE CITRATE]	Compound NOT metabolized
Cc1ccnc2c1NC(=O)c1cccnc1N2C1CC1 [NEVIRAPINE]	Compound NOT metabolized

assay: The drug is tested on Odoribacter splanchnicus strain: fecal isolate for biotransformation. The drug concentrations were measured before and after a 12-h incubation by liquid-chromatography-coupled mass spectrometry (LC–MS); details: 2 µM

Structure (SMILES)	Bacterial Biotransformation
O=C(O)CCc1nc(-c2ccccc2)c(-c2ccccc2)o1 [OXAPROZIN]	Compound metabolized
Cc1ccccc1C(OCCN(C)C)c1ccccc1.O=C(O)CC(O)(CC(=O)O)C(=O)O (stereo unspecified) [ORPHENADRINE CITRATE]	Compound NOT metabolized

assay: The drug is tested on Bacteroides vulgatus strain: ATCC8482 for biotransformation. The drug concentrations were measured before and after a 12-h incubation by liquid-chromatography-coupled mass spectrometry (LC–MS); details: phocaeicola vulgatus, 2 µM

Structure (SMILES)	Bacterial Biotransformation
O=C(O)CCc1nc(-c2ccccc2)c(-c2ccccc2)o1 [OXAPROZIN]	Compound metabolized
Cc1ccccc1C(OCCN(C)C)c1ccccc1.O=C(O)CC(O)(CC(=O)O)C(=O)O (stereo unspecified) [ORPHENADRINE CITRATE]	Compound NOT metabolized
Cc1ccnc2c1NC(=O)c1cccnc1N2C1CC1 [NEVIRAPINE]	Compound NOT metabolized

assay: The drug is tested on Clostridium sp. strain: fecal isolate for biotransformation. The drug concentrations were measured before and after a 12-h incubation by liquid-chromatography-coupled mass spectrometry (LC–MS); details: 2 µM

Structure (SMILES)	Bacterial Biotransformation
O=C(O)CCc1nc(-c2ccccc2)c(-c2ccccc2)o1 [OXAPROZIN]	Compound NOT metabolized
Cc1ccnc2c1NC(=O)c1cccnc1N2C1CC1 [NEVIRAPINE]	Compound metabolized

details: anaerostipes sp., 12 h, 2 µM
Description: The drug is tested on Anaerostipes sp. strain: fecal isolate for biotransformation. The drug concentrations were measured before and after a 12-h incubation by liquid-chromatography-coupled mass spectrometry (LC–MS)

Structure (SMILES)	Bacterial Biotransformation
O=C(O)CCc1nc(-c2ccccc2)c(-c2ccccc2)o1 [OXAPROZIN]	Compound NOT metabolized
Cc1ccccc1C(OCCN(C)C)c1ccccc1.O=C(O)CC(O)(CC(=O)O)C(=O)O (stereo unspecified) [ORPHENADRINE CITRATE]	Compound NOT metabolized
Cc1ccnc2c1NC(=O)c1cccnc1N2C1CC1 [NEVIRAPINE]	Compound NOT metabolized

assay: The drug is tested on Bifidobacterium breve strain: DSM20213 for biotransformation. The drug concentrations were measured before and after a 12-h incubation by liquid-chromatography-coupled mass spectrometry (LC–MS); details: 2 µM

Structure (SMILES)	Bacterial Biotransformation
O=C(O)CCc1nc(-c2ccccc2)c(-c2ccccc2)o1 [OXAPROZIN]	Compound NOT metabolized
Cc1ccccc1C(OCCN(C)C)c1ccccc1.O=C(O)CC(O)(CC(=O)O)C(=O)O (stereo unspecified) [ORPHENADRINE CITRATE]	Compound NOT metabolized
Cc1ccnc2c1NC(=O)c1cccnc1N2C1CC1 [NEVIRAPINE]	Compound NOT metabolized

assay: The drug is tested on Blautia hansenii strain: DSM20583 for biotransformation. The drug concentrations were measured before and after a 12-h incubation by liquid-chromatography-coupled mass spectrometry (LC–MS); details: 2 µM

Structure (SMILES)	Bacterial Biotransformation
O=C(O)CCc1nc(-c2ccccc2)c(-c2ccccc2)o1 [OXAPROZIN]	Compound metabolized
Cc1ccccc1C(OCCN(C)C)c1ccccc1.O=C(O)CC(O)(CC(=O)O)C(=O)O (stereo unspecified) [ORPHENADRINE CITRATE]	Compound metabolized
Cc1ccnc2c1NC(=O)c1cccnc1N2C1CC1 [NEVIRAPINE]	Compound metabolized

assay: The drug is tested on Providencia rettgeri strain: DSM1131 for biotransformation. The drug concentrations were measured before and after a 12-h incubation by liquid-chromatography-coupled mass spectrometry (LC–MS); assay type: ADME; set-up: dose 2 uM, timepoint 0 vs 12 hours; details: 2 µM

Structure (SMILES)	Bacterial Biotransformation
O=C(O)CCc1nc(-c2ccccc2)c(-c2ccccc2)o1 [OXAPROZIN]	Compound NOT metabolized
Cc1ccccc1C(OCCN(C)C)c1ccccc1.O=C(O)CC(O)(CC(=O)O)C(=O)O (stereo unspecified) [ORPHENADRINE CITRATE]	Compound NOT metabolized
Cc1ccnc2c1NC(=O)c1cccnc1N2C1CC1 [NEVIRAPINE]	Compound NOT metabolized

details: bifidobacterium adolescentis, 12 h, 2 µM
Description: The drug is tested on Bifidobacterium adolescentis strain: ATCC 15703 for biotransformation. The drug concentrations were measured before and after a 12-h incubation by liquid-chromatography-coupled mass spectrometry (LC–MS)

Structure (SMILES)	Bacterial Biotransformation
O=C(O)CCc1nc(-c2ccccc2)c(-c2ccccc2)o1 [OXAPROZIN]	Compound NOT metabolized
Cc1ccnc2c1NC(=O)c1cccnc1N2C1CC1 [NEVIRAPINE]	Compound NOT metabolized

assay: The drug is tested on Enterococcus faecalis strain: V583 for biotransformation. The drug concentrations were measured before and after a 12-h incubation by liquid-chromatography-coupled mass spectrometry (LC–MS); details: 2 µM

Structure (SMILES)	Bacterial Biotransformation
O=C(O)CCc1nc(-c2ccccc2)c(-c2ccccc2)o1 [OXAPROZIN]	Compound NOT metabolized
Cc1ccccc1C(OCCN(C)C)c1ccccc1.O=C(O)CC(O)(CC(=O)O)C(=O)O (stereo unspecified) [ORPHENADRINE CITRATE]	Compound NOT metabolized
Cc1ccnc2c1NC(=O)c1cccnc1N2C1CC1 [NEVIRAPINE]	Compound NOT metabolized

details: parabacteroides johnsonii, 12 h, 2 µM
Description: The drug is tested on Parabacteroides johnsonii strain: DSM18315 for biotransformation. The drug concentrations were measured before and after a 12-h incubation by liquid-chromatography-coupled mass spectrometry (LC–MS)

Structure (SMILES)	Bacterial Biotransformation
O=C(O)CCc1nc(-c2ccccc2)c(-c2ccccc2)o1 [OXAPROZIN]	Compound metabolized
Cc1ccccc1C(OCCN(C)C)c1ccccc1.O=C(O)CC(O)(CC(=O)O)C(=O)O (stereo unspecified) [ORPHENADRINE CITRATE]	Compound NOT metabolized
Cc1ccnc2c1NC(=O)c1cccnc1N2C1CC1 [NEVIRAPINE]	Compound NOT metabolized

assay: The drug is tested on Clostridium scindens strain: ATCC35704 for biotransformation. The drug concentrations were measured before and after a 12-h incubation by liquid-chromatography-coupled mass spectrometry (LC–MS); details: 2 µM

Structure (SMILES)	Bacterial Biotransformation
O=C(O)CCc1nc(-c2ccccc2)c(-c2ccccc2)o1 [OXAPROZIN]	Compound NOT metabolized
Cc1ccccc1C(OCCN(C)C)c1ccccc1.O=C(O)CC(O)(CC(=O)O)C(=O)O (stereo unspecified) [ORPHENADRINE CITRATE]	Compound NOT metabolized
Cc1ccnc2c1NC(=O)c1cccnc1N2C1CC1 [NEVIRAPINE]	Compound NOT metabolized

assay: The drug is tested on Clostridium sporogenes strain: ATCC15579 for biotransformation. The drug concentrations were measured before and after a 12-h incubation by liquid-chromatography-coupled mass spectrometry (LC–MS); details: 2 µM

Structure (SMILES)	Bacterial Biotransformation
O=C(O)CCc1nc(-c2ccccc2)c(-c2ccccc2)o1 [OXAPROZIN]	Compound NOT metabolized
Cc1ccccc1C(OCCN(C)C)c1ccccc1.O=C(O)CC(O)(CC(=O)O)C(=O)O (stereo unspecified) [ORPHENADRINE CITRATE]	Compound NOT metabolized
Cc1ccnc2c1NC(=O)c1cccnc1N2C1CC1 [NEVIRAPINE]	Compound NOT metabolized

assay: The drug is tested on Bacteroides caccae strain: ATCC43185 for biotransformation. The drug concentrations were measured before and after a 12-h incubation by liquid-chromatography-coupled mass spectrometry (LC–MS); details: 2 µM

Structure (SMILES)	Bacterial Biotransformation
Cc1ccccc1C(OCCN(C)C)c1ccccc1.O=C(O)CC(O)(CC(=O)O)C(=O)O (stereo unspecified) [ORPHENADRINE CITRATE]	Compound NOT metabolized
Cc1ccnc2c1NC(=O)c1cccnc1N2C1CC1 [NEVIRAPINE]	Compound NOT metabolized

details: segatella copri, 12 h, 2 µM
Description: The drug is tested on Prevotella copri strain: DSM18205 for biotransformation. The drug concentrations were measured before and after a 12-h incubation by liquid-chromatography-coupled mass spectrometry (LC–MS)

Structure (SMILES)	Bacterial Biotransformation
O=C(O)CCc1nc(-c2ccccc2)c(-c2ccccc2)o1 [OXAPROZIN]	Compound NOT metabolized
Cc1ccccc1C(OCCN(C)C)c1ccccc1.O=C(O)CC(O)(CC(=O)O)C(=O)O (stereo unspecified) [ORPHENADRINE CITRATE]	Compound NOT metabolized
Cc1ccnc2c1NC(=O)c1cccnc1N2C1CC1 [NEVIRAPINE]	Compound NOT metabolized

assay: The drug is tested on Bacteroides cellulosilyticus strain: DSM14838 for biotransformation. The drug concentrations were measured before and after a 12-h incubation by liquid-chromatography-coupled mass spectrometry (LC–MS); details: 2 µM

Structure (SMILES)	Bacterial Biotransformation
O=C(O)CCc1nc(-c2ccccc2)c(-c2ccccc2)o1 [OXAPROZIN]	Compound NOT metabolized
Cc1ccccc1C(OCCN(C)C)c1ccccc1.O=C(O)CC(O)(CC(=O)O)C(=O)O (stereo unspecified) [ORPHENADRINE CITRATE]	Compound NOT metabolized
Cc1ccnc2c1NC(=O)c1cccnc1N2C1CC1 [NEVIRAPINE]	Compound NOT metabolized

details: parabacteroides distasonis, 12 h, 2 µM
Description: The drug is tested on Parabacteroides distasonis strain: ATCC8503 for biotransformation. The drug concentrations were measured before and after a 12-h incubation by liquid-chromatography-coupled mass spectrometry (LC–MS)

Structure (SMILES)	Bacterial Biotransformation
O=C(O)CCc1nc(-c2ccccc2)c(-c2ccccc2)o1 [OXAPROZIN]	Compound metabolized
Cc1ccccc1C(OCCN(C)C)c1ccccc1.O=C(O)CC(O)(CC(=O)O)C(=O)O (stereo unspecified) [ORPHENADRINE CITRATE]	Compound NOT metabolized
Cc1ccnc2c1NC(=O)c1cccnc1N2C1CC1 [NEVIRAPINE]	Compound NOT metabolized

assay: The drug is tested on Ruminococcus lactaris strain: ATCC29176 for biotransformation. The drug concentrations were measured before and after a 12-h incubation by liquid-chromatography-coupled mass spectrometry (LC–MS); details: 2 µM

Structure (SMILES)	Bacterial Biotransformation
O=C(O)CCc1nc(-c2ccccc2)c(-c2ccccc2)o1 [OXAPROZIN]	Compound NOT metabolized
Cc1ccccc1C(OCCN(C)C)c1ccccc1.O=C(O)CC(O)(CC(=O)O)C(=O)O (stereo unspecified) [ORPHENADRINE CITRATE]	Compound NOT metabolized
Cc1ccnc2c1NC(=O)c1cccnc1N2C1CC1 [NEVIRAPINE]	Compound NOT metabolized
